Experimental findings from patent US4118561A, “7-(Substituted)-7H-pyrrolo[3,2-f]quinazoline-1,3-diamines” (priority 1977, dated 1978) are described below.

In brackets after ≈: the same amount, converted by molar mass. Bounds are passed on as bounds.

The test system of one series is S. paratyphi 11737. Briefly: In vitro antibacterial activity (MIC), S. paratyphi 11737. The class given is cell-based. Conditions: Salmonella enterica, 18 h.
Series [1] can be described thus: Antimalarial blood schizonticidal test in mice. The class given is in vivo, Plasmodium berghei (infected ICR/HA Swiss mice). On the set-up: ΔMST (increase in mean survival time): unit: days. As to conditions: mouse, in vivo, sc, single dose, infected mice; highest dose with no deaths for any reason; read-out: Highest Non-Lethal Dose. The text has this:
(§1) In addition, the invention provides compounds which have antimalarial activity in vivo as evidenced by a standard blood schizonticidal test in mice infected with Plasmodium berghei KBG 173.
(§2) Utilizing young ICR/HA Swiss mice and a standard inoculum of Plasmodium berghei KBG 173, it is possible to produce a uniform disease fatal to 100% of untreated animals within 6 to 8 days with a mean survival time of 6.2 days. Test animals weigh from 18 to 22 grams but weight variations in any given experimental or control group are confined to 2-3 grams. All animals in any given test are approximately of the same age. Animals on test are housed in metal-topped plastic cages, given a standard laboratory diet and water ad libitum.
(§3) Test animals receive an intraperitoneal injection of 0.5 ml. of 1:100 dilution of heparinized heart's blood with a minimum of 90% parasitized cells (4 × 10^7 cells), drawn from donor mice infected one week earlier with Plasmodium berghei. The donor strain is maintained by weekly passages in separate groups of mice inoculated with a 0.5 ml. of 1:500 dilution of heparinized heart's blood.
(§4) Test compounds are administered after dissolution or suspension in peanut oil. A single dose is given subcutaneously 72 hours after the mice are infected with Plasmodium berghei. At this time a 10-15 percent parasitemia has developed; the disease is well established but has not produced sufficient debility to alter the response of the host to toxic effects of the drug on test. Since treatment is withheld for three days to permit the infection to become well established and death occurs in untreated controls within 6-8 days, it is felt that this system presents a candidate compound with the maximum challenge. In order to check factors such as changes in the infectivity of Plasmodium berghei or in the susceptibility of the host or to detect technical errors, a group of infected animals treated with pyrimethamine at dose levels producing definite increases in survival time is included in a positive control in every experiment.
(§5) In each experiment test compounds are administered in graded dosages. […] However, if an active drug is toxic for the host, its toxicity may become a limiting factor; continued increases in dose levels also increase the toxic effects and may result in the diminution of survival times. Deaths prior to the sixth day, when untreated controls begin to die, are regarded as nonparasitic and become the basis for toxicity evaluations. […] In calculating mean survival time, toxic deaths and 60-day survivors are not included.
(§6) Compounds are considered active which produce a cure in at least one test animal or which produce significant increases in mean survival times of the treated animals as compared with the mean survival times of untreated controls, provided that no drug related deaths (toxicity) are noted at the active dose.

Series [2] deals with Plasmodium berghei KBG 173. Briefly: Antimalarial blood schizonticidal test in mice. The class given is in vivo, Plasmodium berghei (infected ICR/HA Swiss mice). Also on record: ΔMST (increase in mean survival time): unit: days. Conditions: s.c.; for ED100 / minimal effective dose: Plasmodium berghei, sc, 1440 h, single dose; for ED100 / minimal effective dose / Cure/Treat at Min. Curing Dose: 60-day survivors; for ED100: read-out: Lowest Dose Curing All Mice; for minimal effective dose: read-out: Min. Curing Dose; for Cure/Treat at Min. Curing Dose: at the Min. Curing Dose.
Excerpt: as §1, §2, §3, §4, §5, §6

The next series relates to E. coli 9637. Briefly: In vitro antibacterial activity (MIC), E. coli 9637. Conditions: Escherichia coli, 9637, 18 h.
The next series relates to S. aureus Smith. Briefly: In vitro antibacterial activity (MIC), S. aureus Smith. Conditions: Staphylococcus aureus, 18 h.
The subject of the next series is S. aureus 53-180. Description: In vitro antibacterial activity (MIC), S. aureus 53-180. Conditions: Staphylococcus aureus, 53180, 18 h.
Another series relates to P. vulgaris 6896. Briefly: In vitro antibacterial activity (MIC), P. vulgaris 6896. Conditions: Proteus vulgaris, 6896, 18 h.
The next series deals with N. catarrhalis 8193. Briefly: In vitro antibacterial activity (MIC), N. catarrhalis 8193. As to conditions: 18 h.
The next series relates to K. pneumoniae 10031. Description: In vitro antibacterial activity (MIC), K. pneumoniae 10031. As to conditions: Klebsiella pneumoniae, 10031, 18 h.

Regarding `Nc1nc(N)c2c(ccc3c2ccn3Cc2ccccc2F)n1` [Example 3], the MIC in the series with S. paratyphi 11737 turned out to be 0.976 µg/mL (≈ 3.18 µM); with E. coli 9637, 0.488 µg/mL (≈ 1.59 µM); against S. aureus Smith it was 0.488 µg/mL (≈ 1.59 µM); against S. aureus 53-180 it was 0.244 µg/mL (≈ 0.794 µM); in the series with P. vulgaris 6896, 0.976 µg/mL (≈ 3.18 µM); with N. catarrhalis 8193 it was 0.0152 µg/mL (≈ 0.0495 µM). This molecule also registered an MIC with K. pneumoniae 10031 of 0.122 µg/mL (≈ 0.397 µM). Besides, the MTD in series [1] is 80 mg/kg. Besides, the ED100 in series [2] is 80 mg/kg. Further, the minimal effective dose in [2] was 10 mg/kg. Besides, the “Cure/Treat at Min. Curing Dose” value in series [2] is 3/5. For the same molecule, in series [2] (dose 5 mg. per kg.), the “ΔMST (increase in mean survival time)” value amounted to 9.8.

In the case of `Nc1nc(N)c2c(ccc3c2ccn3Cc2cccc(F)c2)n1` [Example 4], the MIC in the series with S. paratyphi 11737 was 0.488 µg/mL (≈ 1.59 µM); with E. coli 9637, 0.244 µg/mL (≈ 0.794 µM); with S. aureus Smith, 0.244 µg/mL (≈ 0.794 µM); with S. aureus 53-180, 0.031 µg/mL (≈ 0.101 µM); against P. vulgaris 6896 it was 0.488 µg/mL (≈ 1.59 µM); with N. catarrhalis 8193, less than 0.0009 µg/mL. In the series on K. pneumoniae 10031, this molecule yielded an MIC of 0.061 µg/mL (≈ 0.198 µM). In addition, in series [1], the MTD is 40 mg/kg. The ED100 in [2] was 40 mg/kg. Besides, the minimal effective dose in series [2] was determined as 10 mg/kg. In addition, the “Cure/Treat at Min. Curing Dose” value in [2] is listed as 1/5. Moreover, the “ΔMST (increase in mean survival time)” value in series [2] (dose 10 mg. per kg.) is 8.3.

For the molecule `Nc1nc(N)c2c(ccc3c2ccn3Cc2ccccc2Cl)n1` [Example 6], the MIC with S. paratyphi 11737 was 1.95 µg/mL (≈ 6.02 µM); against E. coli 9637, 0.976 µg/mL (≈ 3.01 µM); with S. aureus Smith, 0.976 µg/mL (≈ 3.01 µM); against S. aureus 53-180 it was 0.976 µg/mL (≈ 3.01 µM); in the series on P. vulgaris 6896, 7.81 µg/mL (≈ 24.1 µM); against N. catarrhalis 8193 it was 0.061 µg/mL (≈ 0.188 µM). Further, the MIC with K. pneumoniae 10031 came to 0.976 µg/mL (≈ 3.01 µM). In addition, the MTD in series [1] is 160 mg/kg. For the same molecule, in [2], the ED100 came to 20 mg/kg. The minimal effective dose in series [2] worked out at 20 mg/kg. In addition, the “Cure/Treat at Min. Curing Dose” value in series [2] is 5/5. Further, the “ΔMST (increase in mean survival time)” value in [2] (dose 5 mg. per kg.) was 8.3.

Turning to `Nc1nc(N)c2c(ccc3c2ccn3Cc2cccc(C(F)(F)F)c2)n1` [Example 12], the MIC against S. paratyphi 11737 was found to be 7.81 µg/mL (≈ 21.9 µM); against E. coli 9637 it was 0.976 µg/mL (≈ 2.73 µM); in the series with S. aureus Smith, 0.488 µg/mL (≈ 1.37 µM); in the series on S. aureus 53-180, 0.244 µg/mL (≈ 0.683 µM); in the series on P. vulgaris 6896 it was 62.5 µg/mL (≈ 175 µM); in the series on N. catarrhalis 8193, 0.122 µg/mL (≈ 0.341 µM). The molecule further displayed a minimum inhibitory concentration (MIC) against K. pneumoniae 10031 of 0.488 µg/mL (≈ 1.37 µM). In series [2], the minimal effective dose turned out to be 5 mg/kg. Further, the “Cure/Treat at Min. Curing Dose” value in series [2] is recorded as 1/5. Also, in [2] (dose 2.5 mg. per kg.), the “ΔMST (increase in mean survival time)” value is recorded as 7.5.

As for `Cc1ccccc1Cn1ccc2c3c(N)nc(N)nc3ccc21` [Example 19], the minimum inhibitory concentration (MIC) in the series with S. paratyphi 11737 amounted to 3.9 µg/mL (≈ 12.9 µM); against E. coli 9637 it was 0.976 µg/mL (≈ 3.22 µM); in the series on S. aureus Smith, 0.488 µg/mL (≈ 1.61 µM); with S. aureus 53-180 it was 0.488 µg/mL (≈ 1.61 µM); with P. vulgaris 6896, 7.81 µg/mL (≈ 25.7 µM); against N. catarrhalis 8193, 0.0152 µg/mL (≈ 0.0501 µM). The same molecule showed a minimal inhibitory concentration (MIC) in the series on K. pneumoniae 10031 of 0.122 µg/mL (≈ 0.402 µM). Further, the minimal effective dose in [2] worked out at 40 mg/kg. In series [2], the “Cure/Treat at Min. Curing Dose” value is on record as 3/5. Besides, the “ΔMST (increase in mean survival time)” value in [2] (dose 40 mg. per kg.) amounted to 8.4.

For `Nc1nc(N)c2c(ccc3c2ccn3Cc2ccc3c(c2)OCO3)n1` [Example 38], the MIC against S. paratyphi 11737 is 15.6 µg/mL (≈ 46.8 µM); in the series with E. coli 9637, 7.81 µg/mL (≈ 23.4 µM); in the series with S. aureus Smith it was 7.81 µg/mL (≈ 23.4 µM); in the series with S. aureus 53-180 it was 1.95 µg/mL (≈ 5.85 µM); in the series on P. vulgaris 6896, 31.3 µg/mL (≈ 93.9 µM); with N. catarrhalis 8193, 0.244 µg/mL (≈ 0.732 µM). This molecule returned an MIC against K. pneumoniae 10031 of 1.95 µg/mL (≈ 5.85 µM). Moreover, the minimal effective dose in [2] was 10 mg/kg. Besides, the “Cure/Treat at Min. Curing Dose” value in series [2] is on record as 2/5. For the same molecule, in series [2] (dose 2.5 mg. per kg.), the “ΔMST (increase in mean survival time)” value came out at 12.2.

Turning to `Nc1nc(N)c2c(ccc3c2ccn3CC2CCCCC2)n1` [Example 54], the MIC in the series with S. paratyphi 11737 was determined as 7.81 µg/mL (≈ 26.4 µM); in the series on E. coli 9637 it was 1.95 µg/mL (≈ 6.6 µM); against S. aureus Smith, 7.81 µg/mL (≈ 26.4 µM); with S. aureus 53-180, 3.9 µg/mL (≈ 13.2 µM); with P. vulgaris 6896, 3.9 µg/mL (≈ 13.2 µM); in the series on N. catarrhalis 8193, 0.0152 µg/mL (≈ 0.0515 µM). The MIC with K. pneumoniae 10031 was found to be 0.488 µg/mL (≈ 1.65 µM). Besides, the “ΔMST (increase in mean survival time)” value in series [2] (dose 40 mg. per kg.) is recorded as 8.5.

By MIC is commonly meant the least concentration at which growth counts as inhibited.
